Literature values in patent publication US20260151310A1, “COSMETIC FOR HAIR GROWTH, COSMETIC RAW MATERIAL AND COSMETIC, AND METHOD FOR PRODUCING THE SAME” (Teika Pharmaceutical Co., Ltd., priority 2021, published 2026).

System: hair density and hair thickness
Details: compared with positive control minoxidil; Non Patent Literature 1

For `[O-][n+]1ccccc1[S-].[O-][n+]1ccccc1[S-].[Zn+2]` [pyrithione zinc], the “Effect on hair density and hair thickness” value is given as “less than half the effect of a positive control minoxidil”.
